ChEMBL document CHEMBL5137017, “Identification of NVP-CLR457 as an Orally Bioavailable Non-CNS-Penetrant pan-Class IA Phosphoinositol-3-Kinase Inhibitor” (J Med Chem, 2022)
Converted amounts (≈) assume the structure as drawn. The source made the active and inactive calls. The calls are words filed in the database; no cut-off is given here.

What was measured:
[1] = AUC(0 to Tlast) in athymic nude mouse xenografted with rat Rat1 cells expressing myr-p110alpha at 10 mg/kg, po measured after 8 days by LC-MS/MS analysis; format: ADME, organism-based; design: time 8 day, dose 10 mg/kg, route po; settings: in vivo
Mus musculus = assay: In vivo Inhibition of AKT phosphorylation at Ser473 residue in athymic nude mouse xenografted with rat Rat1-myr-p110alpha cells at 10 mg/kg, po qd measured after 1 to 4 hrs; format: functional, organism-based; settings: time 1-4 hrs
[2] = Tmax in beagle dog at 3 mg/kg, po measured upto 24 hrs by LC-MS/MS analysis; format: ADME, organism-based, Canis lupus familiaris; settings: in vivo
[3] = Cmax in athymic nude mouse xenografted with rat Rat1 cells expressing myr-p110alpha at 40 mg/kg, po measured after 8 days by LC-MS/MS analysis; format: ADME, organism-based; design: dose 40 mg/kg, time 8 day, route po; settings: in vivo
[4] = target: Phosphatidylinositol 4,5-bisphosphate 3-kinase catalytic subunit beta isoform (Homo sapiens, UniProt P42338); assay: Inhibition of PI3Kbeta (unknown origin) using L-alpha-phosphatidylinositol as substrate in presence of ATP by Kinase Glo luminescence assay
[5] = Aqueous solubility of compound in buffer at pH 6.8 by HPLC analysis; format: physicochemical
[6] = Clast in athymic nude mouse xenografted with rat Rat1 cells expressing myr-p110alpha at 10 mg/kg, po measured after 8 days by LC-MS/MS analysis; format: ADME, organism-based; settings: in vivo, time 8 day, read-out: Clast
Rat1 [7] = assay: Antitumor activity at rat Rat1 cells expressing myr-p110alpha xenografted in athymic nude mouse assessed as T/C ratio at 40 mg/kg, po bid measured after 15 to 24 days; format: functional; settings: time 15-24 day
[8] = AUCinfinity in Beagle dog at 5.4 mg/kg, po measured upto 24 hrs using PVP-ASD form of sample by LC-MS/MS analysis; format: ADME, organism-based, Canis lupus familiaris; design: time < 24 hrs, dose 5.4 mg/kg, route po; settings: in vivo
[9] = Tmax in beagle dog at 0.3 mg/kg,po or 0.1 mg/kg,iv measured upto 24 hrs by LC-MS/MS analysis; format: ADME, organism-based, Canis lupus familiaris; settings: in vivo
[10] = Volume of distribution at steady state in beagle dog at 0.3 mg/kg,po or 0.1 mg/kg,iv measured upto 24 hrs by LC-MS/MS analysis; format: ADME, organism-based, Canis lupus familiaris; settings: in vivo
[11] = Solubility of compound in simulated gastric fluid at pH 2 measured upto 30 mins by HPLC analysis; format: physicochemical
[12] = Tmax in Beagle dog at 6 mg/kg, po measured upto 24 hrs using crystalline form of sample by LC-MS/MS analysis; format: ADME, organism-based, Canis lupus familiaris; settings: in vivo
[13] = Tlast in athymic nude mouse xenografted with rat Rat1 cells expressing myr-p110alpha at 40 mg/kg, po measured after 8 days by LC-MS/MS analysis; format: ADME, organism-based; settings: in vivo, 192 h, time 8 day
[14] = Inhibition of PI3K PTEN mutant in human HCC1937 cells assessed as reduction in phosphorylation of AKT at Ser473 residue by Western blot analysis; format: cell-based
[15] = Apparent permeability across apical to basolateral side in human Caco-2 cells at 10 uM measured after 120 mins by LC-MS/MS analysis; format: ADME, cell-based
[16] = Tmax in Sprague-Dawley rat at 100 mg/kg, po measured upto 24 hrs by LC-MS/MS analysis; format: ADME, organism-based; settings: in vivo
[17] = Tlast in athymic nude mouse xenografted with rat Rat1 cells expressing myr-p110alpha at 10 mg/kg, po measured after 8 days by LC-MS/MS analysis; format: ADME, organism-based; settings: in vivo, 192 h, time 8 day
[18] = Dose normalized Cmax in beagle dog at 3 mg/kg, po measured upto 24 hrs by LC-MS/MS analysis; format: ADME, organism-based, Canis lupus familiaris; settings: in vivo
[19] = Apparent permeability across basolateral to apical side in human Caco-2 cells at 10 uM measured after 120 mins by LC-MS/MS analysis; format: ADME, cell-based
[20] = Dose normalized Cmax in Sprague-Dawley rat at 3 mg/kg, po measured upto 24 hrs by LC-MS/MS analysis; format: ADME, organism-based; settings: in vivo
[21] = Cmax in Beagle dog at 6 mg/kg, po measured upto 24 hrs using crystalline form of sample by LC-MS/MS analysis; format: ADME, organism-based, Canis lupus familiaris; design: dose 6 mg/kg, time < 24 hrs, route po; settings: in vivo
[22] = Drug concentration in OF1 mouse blood at 1 mg/kg, iv measured at 1 hr post dose by LC-MS/MS analysis; format: ADME, organism-based; settings: whole blood, read-out: Ct
[23] = In vivo Inhibition of AKT phosphorylation at Ser473 residue in athymic nude mouse xenografted with rat Rat1-myr-p110alpha cells at 3 mg/kg, po qd measured after 1 hr; format: functional
[24] = Inhibition of PI3K PTEN mutant in human HCC38 cells assessed as reduction in phosphorylation of AKT at Ser473 residue by Western blot analysis; format: cell-based
[25] = Cmax in athymic nude mouse xenografted with rat Rat1 cells expressing myr-p110alpha at 3 mg/kg, po measured after 8 days by LC-MS/MS analysis; format: ADME, organism-based; design: time 8 day, dose 3 mg/kg, route po; settings: in vivo
[26] = Tmax in beagle dog at 0.3 mg/kg, po measured upto 24 hrs by LC-MS/MS analysis; format: ADME, organism-based, Canis lupus familiaris; settings: in vivo
[27] = AUC(0 to Tlast) in athymic nude mouse xenografted with rat Rat1 cells expressing myr-p110alpha at 40 mg/kg, po measured after 8 days by LC-MS/MS analysis; format: ADME, organism-based; design: time 8 day, dose 40 mg/kg, route po; settings: in vivo
cells = settings: Homo sapiens, U-87 MG, 16 h
[28] = Antitumor activity at patient derived human HBRX2524 xenografted in athymic nude mouse assessed as T/C ratio at 40 mg/kg, po qd measured upto 16 days; format: functional; settings: time <= 16 day
[29] = Inhibition of wild type PI3K in human HCC1187 cells assessed as reduction in phosphorylation of AKT at Ser473 residue by Western blot analysis; format: cell-based
[30] = Inhibition of wild type PI3K in human CAL-85-1 cells assessed as reduction in phosphorylation of AKT at Ser473 residue by Western blot analysis; format: cell-based
[31] = AUC(0 to Tlast) in athymic nude mouse xenografted with rat Rat1 cells expressing myr-p110alpha at 3 mg/kg, po measured after 8 days by LC-MS/MS analysis; format: ADME, organism-based; design: time 8 day, dose 3 mg/kg, route po; settings: in vivo
Rat1 [32] = assay: Antitumor activity at rat Rat1 cells expressing myr-p110alpha xenografted in athymic nude mouse assessed as T/C ratio at 20 mg/kg, po qd measured after 14 to 22 days; format: functional; settings: time 14-22 day
[33] = target: Phosphatidylinositol 4,5-bisphosphate 3-kinase catalytic subunit gamma isoform (Homo sapiens, UniProt P48736); assay: Inhibition of PI3Kgamma (unknown origin) using phosphatidylinositol 4,5-bisphosphate as substrate measured for 15 to 60 mins by TR-FRET based Adapta universal kinase assay
[34] = Effect on blood glucose level in athymic nude mouse xenografted with rat Rat1 cells expressing myr-p110alpha assessed as fold increase at 40 mg/kg, po bid measured for 2 to 10 hrs by glucometer analysis; format: toxicity, organism-based; settings: in vivo, time 2-10 hrs
[35] = Apparent permeability in human Caco-2 cells assessed as Km by Michaelis-Menten based analysis; format: ADME, cell-based; settings: read-out: Km(app)
[36] = Half life in Beagle dog at 5.4 mg/kg, po measured upto 24 hrs using PVP-ASD form of sample by LC-MS/MS analysis; format: ADME, organism-based, Canis lupus familiaris; settings: in vivo
[37] = Dose normalized AUC in Sprague-Dawley rat at 3 mg/kg, po measured upto 24 hrs by LC-MS/MS analysis; format: ADME, organism-based; settings: in vivo

Sequence of Phosphatidylinositol 4,5-bisphosphate 3-kinase catalytic subunit gamma isoform (P48736 whole entry, canonical isoform): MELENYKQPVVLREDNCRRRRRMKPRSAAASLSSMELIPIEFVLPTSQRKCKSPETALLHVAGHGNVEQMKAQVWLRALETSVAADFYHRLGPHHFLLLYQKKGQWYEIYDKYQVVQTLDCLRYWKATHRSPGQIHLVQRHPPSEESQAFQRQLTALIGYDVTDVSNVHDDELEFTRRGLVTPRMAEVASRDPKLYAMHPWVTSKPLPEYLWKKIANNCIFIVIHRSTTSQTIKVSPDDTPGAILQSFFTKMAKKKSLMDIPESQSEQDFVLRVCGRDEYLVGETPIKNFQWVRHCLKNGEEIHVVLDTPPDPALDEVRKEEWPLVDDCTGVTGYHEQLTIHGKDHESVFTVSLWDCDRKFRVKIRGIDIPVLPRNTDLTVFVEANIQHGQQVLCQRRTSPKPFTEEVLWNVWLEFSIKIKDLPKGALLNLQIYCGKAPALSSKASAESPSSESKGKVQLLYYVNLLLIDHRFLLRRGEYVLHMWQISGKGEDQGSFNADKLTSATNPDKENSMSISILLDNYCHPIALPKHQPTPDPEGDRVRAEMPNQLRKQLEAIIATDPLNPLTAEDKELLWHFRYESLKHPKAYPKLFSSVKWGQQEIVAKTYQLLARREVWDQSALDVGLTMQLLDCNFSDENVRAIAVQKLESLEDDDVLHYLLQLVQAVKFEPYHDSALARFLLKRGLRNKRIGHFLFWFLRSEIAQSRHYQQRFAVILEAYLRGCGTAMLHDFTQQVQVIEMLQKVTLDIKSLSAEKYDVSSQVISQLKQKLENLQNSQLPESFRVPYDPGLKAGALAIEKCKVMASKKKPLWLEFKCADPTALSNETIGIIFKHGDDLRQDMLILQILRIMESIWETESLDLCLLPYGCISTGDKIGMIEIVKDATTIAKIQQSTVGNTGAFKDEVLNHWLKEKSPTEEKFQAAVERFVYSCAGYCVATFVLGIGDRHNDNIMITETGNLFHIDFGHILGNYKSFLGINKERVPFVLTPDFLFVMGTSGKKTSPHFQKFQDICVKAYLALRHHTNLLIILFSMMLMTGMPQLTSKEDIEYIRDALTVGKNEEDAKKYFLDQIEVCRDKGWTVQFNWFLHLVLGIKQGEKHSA
Sequence of Phosphatidylinositol 4,5-bisphosphate 3-kinase catalytic subunit beta isoform (P42338 whole entry, canonical isoform): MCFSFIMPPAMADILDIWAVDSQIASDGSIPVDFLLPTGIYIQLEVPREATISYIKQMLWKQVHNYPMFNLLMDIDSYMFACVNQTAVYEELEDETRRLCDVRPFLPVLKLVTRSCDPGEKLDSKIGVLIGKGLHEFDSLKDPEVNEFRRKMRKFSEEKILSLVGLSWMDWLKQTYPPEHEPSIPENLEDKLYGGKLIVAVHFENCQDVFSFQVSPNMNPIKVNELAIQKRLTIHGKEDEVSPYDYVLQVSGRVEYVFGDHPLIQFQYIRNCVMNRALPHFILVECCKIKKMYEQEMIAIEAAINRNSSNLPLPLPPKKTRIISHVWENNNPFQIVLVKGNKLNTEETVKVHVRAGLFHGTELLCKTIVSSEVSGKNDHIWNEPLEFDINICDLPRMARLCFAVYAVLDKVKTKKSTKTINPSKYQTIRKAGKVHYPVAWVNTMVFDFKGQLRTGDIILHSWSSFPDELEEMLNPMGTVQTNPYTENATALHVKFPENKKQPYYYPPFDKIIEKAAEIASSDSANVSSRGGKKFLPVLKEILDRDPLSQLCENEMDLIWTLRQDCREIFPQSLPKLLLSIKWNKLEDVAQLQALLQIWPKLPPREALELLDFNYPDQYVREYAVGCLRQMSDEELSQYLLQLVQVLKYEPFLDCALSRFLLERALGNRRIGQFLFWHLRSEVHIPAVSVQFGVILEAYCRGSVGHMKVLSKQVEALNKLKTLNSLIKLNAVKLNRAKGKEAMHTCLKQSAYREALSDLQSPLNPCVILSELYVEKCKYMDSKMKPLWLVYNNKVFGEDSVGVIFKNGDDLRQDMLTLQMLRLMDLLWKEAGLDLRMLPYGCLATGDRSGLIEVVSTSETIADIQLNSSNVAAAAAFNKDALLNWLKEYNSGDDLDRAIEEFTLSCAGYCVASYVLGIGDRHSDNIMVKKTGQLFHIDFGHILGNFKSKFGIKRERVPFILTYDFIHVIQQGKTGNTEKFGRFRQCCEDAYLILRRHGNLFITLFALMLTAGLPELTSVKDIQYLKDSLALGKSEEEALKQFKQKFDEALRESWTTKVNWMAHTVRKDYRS

AUC(0-t) at 192 h [1]: 16 µM·h
Tmax [2]: 2 h
Cmax [3]: 8950 nM
IC50 [4]: 0.0083 µM
solubility [5]: 29 µM (≈ 13.2 µg/mL)
concentration at 192 h [6]: 140 nM
AUC(0-inf) [8]: 152 µM·h
Tmax [9]: 1.3 h
Vdss [10]: 1.5 L/kg
solubility at 0.5 h [11]: 64 µM (≈ 29.1 µg/mL)
Tmax [12]: 4 h
Tlast [13]: 24 h
IC50 [14]: 0.251 µM
Papp A→B at 2 h, 10 µM [15]: 8.9 ×10⁻⁶ cm/s
Tmax [16]: 24 h
Tlast [17]: 14 h
Cmax/dose [18]: 309 nM
Papp B→A at 2 h, 10 µM [19]: 19 ×10⁻⁶ cm/s
Cmax/dose [20]: 213 nM
Cmax [21]: 1240 nM
concentration at 1 h [22]: 630 nM
IC50 [24]: 0.088 µM
Cmax [25]: 1480 nM
Tmax [26]: 1 h
AUC(0-t) at 192 h [27]: 54 µM·h
IC50 (cells): 0.1 µM
IC50 [29]: 0.094 µM
IC50 [30]: 0.03 µM
AUC(0-t) at 192 h [31]: 5.5 µM·h
IC50 [33]: 0.23 µM
Km [35]: > 30 µM
half-life [36]: 9.9 h
AUC/dose [37]: 1709 nM·h
SMILES: C[C@H]1OC(=O)N(c2nc(-c3cnc(N)nc3C(F)(F)F)cc(N3CCOCC3)n2)[C@H]1CO
inhibition (Mus musculus): Active
T/C (Rat1 [7]): -0.86
inhibition in vivo at 3 mg/kg [23]: 80%
T/C [28]: -0.2
T/C (Rat1 [32]): 0.04
fold change (FC) [34]: 2
